Assay results reported in patent publication US20230243856A1, “IDENTIFYING DIRECT ORAL FACTOR XA INHIBITORS” (Instrumentation Laboratory Company, priority 2022, published 2023).

System: clotting of a test sample, such as whole blood
Assay: low tissue factor clotting assay with a reagent of diluted tissue factor, CaCl2 and polycation heparin inhibitor (polybrene)
Format: biochemical
Settings: for relationship between TTC and concentration in the sample: range shown between 0 and 500 ng/mL, TTC in seconds; for relationship between TTC and concentration in the sample / concentration in the test sample at a measured clotting time of 400 seconds: FIG. 2 / FIG. 3; for concentration in the test sample at a measured clotting time of 400 seconds: read from plot of TTC versus concentration; for plot of TTC versus concentration with 1 IU UFH or 0 IU UFH in the test sample: test sample with 1 IU unfractionated heparin or no heparin, region 400 / 500 of FIG. 4 / FIG. 5
Source text: The clotting assay uses a reagent to initiate the clotting of a test sample, such as whole blood or a sample derived from whole blood (e.g., plasma). A low tissue factor assay is an example of a clotting assay. […] The low tissue factor assay monitors the clotting of a mixture of the test sample and the reagent and determines clotting parameters based on that clotting. The TTC parameters can be different on different clinical analyzer systems and for different low tissue factor assays. For example, TTC parameter(s) for low tissue factor assays performed using the ROTEM® sigma and the RQTEM® delta systems by Werfen® include clotting time (CT) (where CT is the latency time from adding reagent to sample until the clot starts to form); TTC parameter(s) for low tissue factor assays performed using the TEG® 6s system by Haemonetics® include reaction time (R) and clotting time (CT); and TTC parameter(s) for low tissue factor assays performed using the Quanta® system by the Hemoscnics® system include dot time (CT). An example of the reagent that may be used in the low tissue factor assay (referred to below as “the assay”) to initiate clotting of the test sample includes the following constituents: a diluted tissue factor (“the tissue factor”), calcium chloride (CaCl2), and a heparin inhibitor. The tissue factor activates the extrinsic pathway; the heparin inhibitor reduces or eliminates the sensitivity of the assay to heparin or at least certain concentrations of heparin in the test sample; and CaCl2 recalcifies the sample as required for blood clotting to occur. An example of a type of heparin inhibitor that may be used in the reagent is polycation. An example of a polycation that may be used in the reagent includes, but is not limited to, polybrene. […] In this example, process 100 includes receiving (100a) a test sample having an unknown anti-Xa DOAC at an unknown concentration. The test sample may be received in a diagnostic testing/clinical analyzer system or a manual testing system. The test sample may be any of the types of test samples described herein. The system performs a low tissue factor assay on the test sample. This includes causing the test sample to contact a reagent such as the example reagents described herein. The test sample mixes (100b) with the reagent. The mixing may be performed automatically or manually by physically moving the test sample and the reagent using a mixing element mechanism, e.g., agitation, flow, or the like. The resulting liquid, which is a mixture of the sample and the reagent, begins to clot. The clotting parameters(s), such as TTC, CFT, and/or amplitudes, of clots formed from the liquid may be measured (100c) by the diagnostic testing/clinical analyzer system or manually. The plots of FIGS. 4 to 6, which are described below, are associated with various experiments using the low tissue factor assay and the example reagents described herein containing the tissue factor, CaCl2, and a heparin inhibitor, such as polybrene or other polycation.

Structure (SMILES) | relationship between TTC and concentration in the sample | concentration in the test sample at a measured clotting time of 400 seconds | plot of TTC versus concentration with 1 IU UFH or 0 IU UFH in the test sample
COc1ccc(-n2nc(C(N)=O)c3c2C(=O)N(c2ccc(N4CCCCC4=O)cc2)CC3)cc1 [apixaban] | linear | about 160 ng/mL | substantially linear
O=C(NC[C@H]1CN(c2ccc(N3CCOCC3=O)cc2)C(=O)O1)c1ccc(Cl)s1 [rivaroxaban] | linear | about 50 ng/mL | substantially linear
